Laboratory results as given in publication doi:10.1101/2025.03.18.644008v1 (biorxiv, 2025).
pEC50: −log10 of the molar value.

Molecular target: T1, LPA3 receptor (Homo sapiens, UniProt Q9UBY5)
T1 sequence (Q9UBY5 1-353): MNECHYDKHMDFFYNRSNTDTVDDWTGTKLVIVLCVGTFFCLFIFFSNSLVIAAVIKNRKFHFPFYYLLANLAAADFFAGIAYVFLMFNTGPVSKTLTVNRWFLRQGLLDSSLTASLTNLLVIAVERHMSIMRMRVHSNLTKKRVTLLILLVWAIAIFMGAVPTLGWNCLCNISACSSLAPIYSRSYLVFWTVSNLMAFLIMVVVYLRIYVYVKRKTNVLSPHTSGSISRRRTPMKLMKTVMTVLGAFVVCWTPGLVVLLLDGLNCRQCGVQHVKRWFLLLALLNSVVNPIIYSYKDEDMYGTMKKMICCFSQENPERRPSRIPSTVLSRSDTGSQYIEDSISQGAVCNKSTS
Assay: intracellular calcium, Fura-2 AM, induced HEK […] Flp-In TREx cells
Assay type: cell-based

Row | SMILES | pEC50
1 | CCCCCCCC/C=C\CCCCCCCC(=O)OC[C@@H](COP(O)(O)=S)OC [OMPT] | ~7.22
2 | Fc1ccc([C@@H]2CCNC[C@H]2COc2ccc3c(c2)OCO3)cc1 [paroxetine] | ~4.52
